Values joined by “and” are separate entries in the source; they are usually repeats but may differ in a detail not shown here. Identical values can stand only once.
System: human erythrocytes
Assay: Untargeted metabolomics and 13C-glucose tracing of enolase inhibitor treated erythrocytes
Assay type: cell-based
Conditions: 6h
Description: Freshly collected erythrocytes were washed, resuspended to 10% hematocrit in buffer [25mM HEPES (pH 7.4), 120mM NaCl, 5.4mM KCl, 1.8mM CaCl2, and 1mM NaH2PO4], incubated for 1 hour at 37°C, then centrifuged at 2000xg for 5 minutes at 4°C, resuspended in fresh wash buffer to 30-40% hematocrit, and split into 210µL aliquots of packed erythrocytes. […] All samples were incubated at 37°C shaking at 500 RPM. Triplicate samples of supernatants and packed erythrocytes were collected at 0, 0.5, 1, and 6-hour intervals and snap-frozen in liquid N2.
RBC and media samples were extracted at 1:10 and 1:20 dilutions, respectively, in 5:3:2 MeOH : MeCN:H2O v/v/v, and supernatants analyzed on a Thermo Vanquish UHPLC coupled to a Thermo Q Exactive mass spectrometer, as extensively described ([Nemkov et al., 2015]; [Nemkov et al., 2017]). The extraction buffer was supplemented with 40uM 3-^13C lactate to allow absolute quantification of lactate isotopologues, including lactate generated via glycolysis ([1,2,3-^13C3] enriched) vs. the pentose phosphate pathway ([2,3-^13C2] enriched), as described ([Reisz et al., 2016]). Metabolite assignments, peak area integration and isotopologues distributions were determined using Maven (Princeton University) ([Nemkov et al., 2015]; [Nemkov et al., 2017]).
Data were auto-scaled and normalized to zero-hour time points. Metabolites were removed from the dataset if greater than 50% of the samples contained missing values or the relative standard deviation among replicates exceeded 25%. Additionally, data was filtered using the interquartile range to reduce near-constant values from the experiment by 5%.
A principal component analysis of preprocessed data was plotted with the 95% confidence interval minimum volume enclosing ellipsoid for each respective group (MetaboAnalyst, cluster, plotly). A two-way repeated measures analysis of variance (ANOVA) was performed with multiple comparisons corrected for using a false discovery rate p-value cutoff of 0.05. Metabolite-Pathway analysis was performed using the R package of MetaboAnalyst, as previously described ([Xia and Wishart, 2010]). Metabolite-Protein nodal analysis was performed using omicsnet.ca and as previously described ([Zhou and Xia, 2018]).

[1] = treated erythrocytes, one value per replicate sample, polarity +
[2] = treated erythrocytes, one value per replicate sample, polarity -
[3] = treated erythrocytes, replicate samples

What does the source list for `CC(C)(C)C(=O)OCOP(=O)(OCOC(=O)C(C)(C)C)C1CC(O)N(O)C1=O` (stereo not shown) [POMSF]?
AMP level (metabolomics signal) (replicate samples): 5.02E+05 and 4.09E+05 and 5.85E+05; ATP level (metabolomics signal) (replicate samples): 1.58E+04 and 9.84E+04 and 9.63E+04; Adenine level (metabolomics signal) (replicate samples): 7.75E+04 and 1.23E+05 and 1.12E+05; Cytosine level (metabolomics signal) (replicate samples): 8.05E+04 and 4.16E+04 and 5.19E+04; L-alanine level (metabolomics signal) (replicate samples): 8.35E+06 and 9.19E+06 and 8.31E+06; L-arginine level (metabolomics signal) (replicate samples): 2.95E+06 and 0.00E+00 and 2.67E+06; L-asparagine level (metabolomics signal) (replicate samples): 5.77E+06 and 5.60E+06 and 5.22E+06; L-aspartate level (metabolomics signal) (replicate samples): 1.31E+07 and 1.25E+07 and 1.18E+07; L-cysteine level (metabolomics signal) (replicate samples): 3.97E+05 and 1.14E+05 and 2.20E+05; L-glutamate level (metabolomics signal) (replicate samples): 7.50E+06 and 6.15E+06 and 6.74E+06; L-glutamine level (metabolomics signal) (replicate samples): 6.26E+07 and 5.76E+07 and 5.48E+07; L-histidine level (metabolomics signal) (replicate samples): 1.46E+06 and 1.38E+06 and 1.44E+06; L-isoleucine level (metabolomics signal) (replicate samples): 1.17E+07 and 1.31E+07 and 1.49E+07; L-leucine level (metabolomics signal) (replicate samples): 1.27E+08 and 1.58E+08 and 2.15E+08; L-lysine level (metabolomics signal) (replicate samples): 1.43E+06 and 1.33E+06 and 1.52E+06; L-methionine level (metabolomics signal) (replicate samples): 1.27E+07 and 1.48E+07 and 1.83E+07; L-phenylalanine level (metabolomics signal) (replicate samples): 6.89E+06 and 7.47E+06 and 8.39E+06; L-proline level (metabolomics signal) (replicate samples): 7.25E+07 and 6.63E+07 and 6.78E+07; L-serine level (metabolomics signal) (replicate samples): 4.64E+06 and 4.68E+06 and 4.28E+06; L-threonine level (metabolomics signal) (replicate samples): 6.95E+06 and 7.99E+06 and 7.08E+06; L-tryptophan level (metabolomics signal) (replicate samples): 1.43E+06 and 1.21E+06 and 1.71E+06; L-tyrosine level (metabolomics signal) (replicate samples): 1.74E+07 and 2.17E+07 and 2.50E+07; L-valine level (metabolomics signal) (replicate samples): 1.73E+08 (2×) and 1.89E+08; dCMP level (metabolomics signal) (replicate samples): 0.00E+00 and 1.19E+04 and 1.51E+04; dTMP level (metabolomics signal) (replicate samples): 2.61E+04 and 1.28E+06 and 7.09E+05; glycine level (metabolomics signal) (replicate samples): 1.74E+06 and 1.71E+06 and 1.54E+06; N-Acyl-D-aspartate (C06380) metabolite signal [1]: 6.19E+04 and 7.22E+04 and 7.18E+04; Poly-gamma-D-glutamate (C05723) metabolite signal [1]: 4.28E+07 and 3.89E+07 and 3.91E+07; D-Ribitol 5-phosphate (C01068) metabolite signal [2]: 0.00E+00 and 1.62E+04 and 1.65E+04; D-glucono-1,5-lactone (C00198) metabolite signal [2]: 1.21E+04 and 2.10E+05 and 2.85E+05; L-Noradrenaline (C00547) metabolite signal [2]: 1.67E+04 and 1.81E+04 and 3.13E+04; Oxalosuccinate (C05379) metabolite signal [2]: 3.74E+04 and 9.19E+04 and 1.02E+05; Pyridoxamine (C00534) metabolite signal [2]: 1.97E+04 and 7.81E+03 and 6.44E+03; Thioredoxin disulfide (C00343) metabolite signal [2]: 0.00E+00 and 8.04E+04 and 2.51E+04; 1-4-beta-D-Xylan (metabolite signal) [3]: 2.44E+04 and 1.72E+05 and 1.77E+05; 2-Hydroxyglutarate/Citramalate (C02630) metabolite signal [3]: 8.76E+03 and 5.83E+04 and 8.08E+04; 5-6-Dihydrothymine (C00906) metabolite signal [3]: 7.42E+04 and 3.03E+05 and 2.79E+05; 5-10-Methenyltetrahydrofolate (metabolite signal) [3]: 1.08E+05 and 1.27E+05 (2×); 5-Hydroxyisourate (C11821) metabolite signal [3]: 4.60E+06 and 7.03E+06 and 4.57E+06; 5-L-Glutamyl-taurine (metabolite signal) [3]: 1.69E+05 and 1.70E+05 and 1.66E+05; 5-Oxoproline (metabolite signal) [3]: 7.65E+04 and 8.27E+05 and 8.67E+05; (S)(+)-Allantoin (C02350) metabolite signal [3]: 1.76E+03 and 8.43E+03 and 0.00E+00; Allantoate (C00499) metabolite signal [3]: 5.45E+05 and 3.06E+05 and 4.74E+05; Ascorbate (metabolite signal) [3]: 3.17E+02 and 8.49E+04 and 7.10E+04; CMP-N-acetylneuraminate (metabolite signal) [3]: 0.00E+00 and 1.60E+04 and 3.30E+04; Carnosine (metabolite signal) [3]: 1.68E+05 and 2.26E+05 and 1.66E+05; Citrate (C00158) metabolite signal [3]: 1.56E+03 and 1.77E+04 and 2.42E+04; Creatine (metabolite signal) [3]: 1.60E+08 and 1.66E+08 and 1.57E+08; Creatinine (metabolite signal) [3]: 2.21E+06 and 2.25E+06 and 2.28E+06; Cys-Gly (metabolite signal) [3]: 7.06E+05 and 5.27E+05 and 4.56E+05; D-Glucosamine (metabolite signal) [3]: 2.84E+05 and 2.82E+05 and 2.01E+05; D-Glucose (C00031) metabolite signal [3]: 3.39E+04 and 4.32E+06 and 3.64E+06; D-Ribose (C00121) metabolite signal [3]: 1.37E+04 and 1.43E+05 and 1.11E+05; Dehydroascorbate (metabolite signal) [3]: 0.00E+00 and 3.73E+04 and 1.82E+04; Dihydrofolate (metabolite signal) [3]: 1.85E+06 and 9.70E+05 and 1.18E+06; Dimethylglycine (metabolite signal) [3]: 7.46E+05 and 8.20E+05 and 5.98E+05; Diphosphate (C00013) metabolite signal [3]: 0.00E+00 and 2.99E+04 and 2.16E+04; Fumarate (C00122) metabolite signal [3]: 3.34E+03 and 7.81E+04 and 1.06E+05; Glutathione (C00051) metabolite signal [3]: 4.14E+07 and 3.33E+07 and 3.37E+07; Glutathione disulfide (metabolite signal) [3]: 0.00E+00 and 1.62E+05 and 3.64E+05; Hypoxanthine (C00262) metabolite signal [3]: 7.62E+03 and 4.26E+03 and 3.54E+03; IMP (C00130) metabolite signal [3]: 1.27E+04 and 8.26E+04 and 5.76E+04; Inosine (C00294) metabolite signal [3]: 1.21E+03 and 4.59E+04 and 5.50E+04; L-Citrulline (metabolite signal) [3]: 2.43E+06 and 3.35E+06 and 2.92E+06; L-Homoserine (metabolite signal) [3]: 1.60E+04 and 2.75E+05 and 2.50E+05; Lactate (C01432) metabolite signal [3]: 9.68E+05 and 1.69E+07 and 1.76E+07; Malate (C00149) metabolite signal [3]: 3.14E+03 and 1.07E+05 and 1.56E+05; Mannitol (C00392) metabolite signal [3]: 6.48E+03 and 1.86E+05 and 1.78E+05; N-Acetylneuraminate (metabolite signal) [3]: 0.00E+00 and 1.33E+04 and 1.50E+04; N-Glycoloyl-neuraminate (metabolite signal) [3]: 0.00E+00 and 1.02E+05 and 7.37E+04; NAD+ (C00003) metabolite signal [3]: 5.65E+04 and 4.00E+04 and 9.30E+04; Nicotinamide (C00153) metabolite signal [3]: 2.54E+07 and 3.18E+07 and 2.67E+07; Ornithine (metabolite signal) [3]: 1.63E+06 and 1.68E+06 and 1.77E+06; Oxaloacetate (C00036) metabolite signal [3]: 1.48E+03 and 3.44E+04 and 3.60E+04; Phosphoserine (metabolite signal) [3]: 5.41E+04 and 5.91E+04 and 2.74E+04; Putrescine (metabolite signal) [3]: 3.78E+04 and 4.55E+04 and 4.46E+04; Pyridoxal (C00250) metabolite signal [3]: 3.76E+04 and 4.39E+04 and 5.36E+04; Pyruvate (C00022) metabolite signal [3]: 8.68E+04 and 2.04E+06 and 2.17E+06; S-Glutathionyl-L-cysteine (metabolite signal) [3]: 0.00E+00 and 1.18E+05 and 1.30E+05; Sedoheptulose 1-phosphate (C06222) metabolite signal [3]: 0.00E+00 and 1.66E+04 and 1.92E+04; Spermidine (metabolite signal) [3]: 6.37E+06 and 6.43E+06 and 6.27E+06; Spermine (metabolite signal) [3]: 8.12E+06 and 8.01E+06 and 7.75E+06; Succinate (C00042) metabolite signal [3]: 1.40E+04 and 6.55E+04 and 4.55E+04; Thymidine (C00214) metabolite signal [3]: 4.03E+04 and 7.72E+03 and 7.98E+03; UDP (C00015) metabolite signal [3]: 0.00E+00 and 1.32E+05 and 7.27E+04; UDP-N-acetyl-D-glucosamine (metabolite signal) [3]: 0.00E+00 and 6.00E+03 and 1.01E+04; UDP-glucose (C00029) metabolite signal [3]: 0.00E+00 and 8.80E+03 and 1.03E+04; Urate (C00366) metabolite signal [3]: 1.39E+04 and 2.30E+04 and 2.01E+04; Xanthine (C00385) metabolite signal [3]: 8.29E+04 and 9.81E+04 and 9.24E+04; alpha-D-Glucosamine 1-phosphate (metabolite signal) [3]: 8.54E+05 and 1.67E+06 and 1.26E+06; alpha-D-Ribose 1-phosphate (C00620) metabolite signal [3]: 0.00E+00 and 2.89E+04 and 3.75E+04; gamma-Glutamyl-gamma-aminobutyrate (metabolite signal) [3]: 5.89E+04 and 6.64E+04 and 6.00E+04; gamma-L-Glutamyl-D-alanine (metabolite signal) [3]: 3.86E+02 and 3.06E+04 and 3.37E+04; gamma-L-Glutamyl-L-cysteine (metabolite signal) [3]: 4.08E+03 and 2.68E+04 and 3.24E+04
